Read-outs that look alike come from different tables or passages of the source.
Key:
Experiment in all cases: biochemical
[1] = target: AKT1 (Homo sapiens, UniProt P31749)
[2] = target: ASK1 (Homo sapiens, UniProt Q99683)
[3] = target: CAMK1D (Homo sapiens, UniProt Q8IU85)
[4] = target: CDC2L1 (Homo sapiens, UniProt P21127)
[5] = target: CDK11 (Homo sapiens, UniProt Q9BWU1)
[6] = target: CDK9 (Homo sapiens, UniProt P50750)
[7] = target: CHEK1 (Homo sapiens, UniProt O14757)
[8] = target: CLK2 (Homo sapiens, UniProt P49760)
[9] = target: DAPK1 (Homo sapiens, UniProt P53355)
[10] = target: DAPK2 (Homo sapiens, UniProt Q9UIK4)
[11] = target: DCAMKL2 (Homo sapiens, UniProt Q8N568)
[12] = target: DMPK2 (Homo sapiens, UniProt Q6DT37)
[13] = target: ERN1 (Homo sapiens, UniProt O75460)
[14] = target: FGFR1 (Homo sapiens, UniProt P11362)
[15] = target: FGFR2 (Homo sapiens, UniProt P21802)
[16] = target: HIPK1 (Homo sapiens, UniProt Q86Z02)
[17] = target: INSRR (Homo sapiens, UniProt P14616)
[18] = target: LIMK1 (Homo sapiens, UniProt P53667)
[19] = target: LRRK2(G2019S) (Homo sapiens, UniProt Q5S007, G2019S)
[20] = target: LYN (Homo sapiens, UniProt P07948)
[21] = target: MEK1 (Homo sapiens, UniProt Q02750)
[22] = target: MEK3 (Homo sapiens, UniProt P46734)
[23] = target: MET (Homo sapiens, UniProt P08581)
[24] = target: MKNK2 (Homo sapiens, UniProt Q9HBH9)
[25] = target: MYLK2 (Homo sapiens, UniProt Q9H1R3)
[26] = target: MYO3B (Homo sapiens, UniProt Q8WXR4)
[27] = target: ABL1(Q252H)-phosphorylated (Homo sapiens, UniProt P00519, Q252H)
[28] = target: ABL1(T315I)-nonphosphorylated (Homo sapiens, UniProt P00519, T315I)
[29] = target: ABL1(F317L)-phosphorylated (Homo sapiens, UniProt P00519, F317L)
[30] = read-out: HYJ-2-002-1 (1uM) % control
[31] = read-out: CPT-1-70-1 (1uM) % control

Chain of MYLK2 (Q9H1R3 whole entry): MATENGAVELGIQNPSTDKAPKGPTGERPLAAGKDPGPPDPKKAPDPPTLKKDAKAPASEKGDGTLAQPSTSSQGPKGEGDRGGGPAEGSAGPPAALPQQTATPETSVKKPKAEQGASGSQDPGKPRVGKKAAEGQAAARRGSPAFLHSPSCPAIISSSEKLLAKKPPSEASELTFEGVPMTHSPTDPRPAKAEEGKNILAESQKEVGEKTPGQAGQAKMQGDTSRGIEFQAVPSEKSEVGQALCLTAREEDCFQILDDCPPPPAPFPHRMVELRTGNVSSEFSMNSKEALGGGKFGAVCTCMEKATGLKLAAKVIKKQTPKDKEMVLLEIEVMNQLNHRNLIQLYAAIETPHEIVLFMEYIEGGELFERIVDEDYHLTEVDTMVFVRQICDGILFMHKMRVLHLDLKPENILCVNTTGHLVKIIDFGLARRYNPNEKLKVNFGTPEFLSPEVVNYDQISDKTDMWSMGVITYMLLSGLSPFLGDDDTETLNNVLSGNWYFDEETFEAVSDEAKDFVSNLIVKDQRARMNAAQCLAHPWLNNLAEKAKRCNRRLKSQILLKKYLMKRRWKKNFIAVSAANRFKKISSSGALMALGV
Chain of CDK9 (P50750 whole entry): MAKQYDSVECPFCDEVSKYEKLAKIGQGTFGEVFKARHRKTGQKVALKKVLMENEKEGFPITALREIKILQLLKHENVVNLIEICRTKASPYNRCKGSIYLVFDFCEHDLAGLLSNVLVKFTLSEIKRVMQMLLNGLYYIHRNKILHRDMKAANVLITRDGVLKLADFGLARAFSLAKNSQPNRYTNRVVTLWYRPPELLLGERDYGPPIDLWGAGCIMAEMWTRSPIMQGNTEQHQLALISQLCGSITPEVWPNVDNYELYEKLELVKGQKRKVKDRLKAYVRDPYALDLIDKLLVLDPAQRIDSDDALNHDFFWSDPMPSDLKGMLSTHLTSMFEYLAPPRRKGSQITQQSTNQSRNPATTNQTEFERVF
Chain of MEK3 (P46734 whole entry): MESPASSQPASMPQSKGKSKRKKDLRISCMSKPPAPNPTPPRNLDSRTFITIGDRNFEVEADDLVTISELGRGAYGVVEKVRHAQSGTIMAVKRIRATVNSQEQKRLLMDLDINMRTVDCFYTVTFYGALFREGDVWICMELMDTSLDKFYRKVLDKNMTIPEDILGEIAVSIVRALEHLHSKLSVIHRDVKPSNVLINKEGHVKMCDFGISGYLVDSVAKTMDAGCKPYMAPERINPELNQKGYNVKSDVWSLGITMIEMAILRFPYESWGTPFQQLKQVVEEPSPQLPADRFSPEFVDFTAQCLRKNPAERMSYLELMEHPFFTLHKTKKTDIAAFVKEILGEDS
Chain of LIMK1 (P53667 whole entry): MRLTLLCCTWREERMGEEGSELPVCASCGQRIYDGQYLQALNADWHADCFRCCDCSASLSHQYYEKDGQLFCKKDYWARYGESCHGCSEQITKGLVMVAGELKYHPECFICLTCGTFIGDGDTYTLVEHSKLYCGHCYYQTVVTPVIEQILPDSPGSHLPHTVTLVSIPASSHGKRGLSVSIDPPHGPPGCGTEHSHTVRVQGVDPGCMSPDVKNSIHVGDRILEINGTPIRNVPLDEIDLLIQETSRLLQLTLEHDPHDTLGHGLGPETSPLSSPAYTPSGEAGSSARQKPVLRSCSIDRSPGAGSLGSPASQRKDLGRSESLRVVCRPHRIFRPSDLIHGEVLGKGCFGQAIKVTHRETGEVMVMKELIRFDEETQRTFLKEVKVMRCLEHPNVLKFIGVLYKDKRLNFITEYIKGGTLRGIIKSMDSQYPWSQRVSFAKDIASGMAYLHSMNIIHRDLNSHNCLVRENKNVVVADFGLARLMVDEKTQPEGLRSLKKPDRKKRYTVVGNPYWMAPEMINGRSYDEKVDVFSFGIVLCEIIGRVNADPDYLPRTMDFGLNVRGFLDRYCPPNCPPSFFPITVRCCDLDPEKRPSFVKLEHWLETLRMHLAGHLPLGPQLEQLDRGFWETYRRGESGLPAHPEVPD
Chain of MET (P08581 whole entry): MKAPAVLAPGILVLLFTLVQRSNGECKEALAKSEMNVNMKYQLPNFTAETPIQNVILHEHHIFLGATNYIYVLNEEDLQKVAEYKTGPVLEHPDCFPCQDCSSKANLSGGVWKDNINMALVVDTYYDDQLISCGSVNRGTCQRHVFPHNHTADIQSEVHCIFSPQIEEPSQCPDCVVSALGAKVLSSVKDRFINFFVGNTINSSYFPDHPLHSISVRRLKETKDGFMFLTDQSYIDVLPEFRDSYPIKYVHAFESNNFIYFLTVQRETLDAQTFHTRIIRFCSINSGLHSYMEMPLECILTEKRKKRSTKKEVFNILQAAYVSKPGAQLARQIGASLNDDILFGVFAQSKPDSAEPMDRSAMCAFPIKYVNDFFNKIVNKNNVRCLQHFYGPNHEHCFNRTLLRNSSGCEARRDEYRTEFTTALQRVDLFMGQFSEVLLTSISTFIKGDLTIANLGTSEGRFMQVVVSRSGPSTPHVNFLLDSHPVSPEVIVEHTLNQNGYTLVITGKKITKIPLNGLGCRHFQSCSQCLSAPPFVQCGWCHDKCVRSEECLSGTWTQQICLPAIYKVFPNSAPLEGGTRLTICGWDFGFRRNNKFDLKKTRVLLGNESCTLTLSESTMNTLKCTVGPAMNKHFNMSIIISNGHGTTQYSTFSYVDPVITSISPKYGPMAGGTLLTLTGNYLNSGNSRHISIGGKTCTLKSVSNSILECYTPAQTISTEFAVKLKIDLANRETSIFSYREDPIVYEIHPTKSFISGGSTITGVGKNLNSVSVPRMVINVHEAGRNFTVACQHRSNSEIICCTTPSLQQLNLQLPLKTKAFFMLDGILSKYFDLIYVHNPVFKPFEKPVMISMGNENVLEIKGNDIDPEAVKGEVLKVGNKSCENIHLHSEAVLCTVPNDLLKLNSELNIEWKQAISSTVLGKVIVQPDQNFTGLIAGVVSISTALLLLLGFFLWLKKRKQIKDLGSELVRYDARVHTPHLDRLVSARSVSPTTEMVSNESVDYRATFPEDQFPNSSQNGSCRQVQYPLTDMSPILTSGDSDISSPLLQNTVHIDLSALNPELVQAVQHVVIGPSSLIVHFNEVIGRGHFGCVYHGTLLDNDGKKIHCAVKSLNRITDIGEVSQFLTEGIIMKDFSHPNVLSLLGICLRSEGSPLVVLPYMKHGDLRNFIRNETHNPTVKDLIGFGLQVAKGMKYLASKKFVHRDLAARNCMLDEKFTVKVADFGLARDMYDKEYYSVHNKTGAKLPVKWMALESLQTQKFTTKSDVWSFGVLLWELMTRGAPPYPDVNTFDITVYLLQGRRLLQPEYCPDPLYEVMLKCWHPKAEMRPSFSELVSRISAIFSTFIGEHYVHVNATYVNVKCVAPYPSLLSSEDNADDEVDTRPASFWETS
Chain of DAPK1 (P53355 whole entry): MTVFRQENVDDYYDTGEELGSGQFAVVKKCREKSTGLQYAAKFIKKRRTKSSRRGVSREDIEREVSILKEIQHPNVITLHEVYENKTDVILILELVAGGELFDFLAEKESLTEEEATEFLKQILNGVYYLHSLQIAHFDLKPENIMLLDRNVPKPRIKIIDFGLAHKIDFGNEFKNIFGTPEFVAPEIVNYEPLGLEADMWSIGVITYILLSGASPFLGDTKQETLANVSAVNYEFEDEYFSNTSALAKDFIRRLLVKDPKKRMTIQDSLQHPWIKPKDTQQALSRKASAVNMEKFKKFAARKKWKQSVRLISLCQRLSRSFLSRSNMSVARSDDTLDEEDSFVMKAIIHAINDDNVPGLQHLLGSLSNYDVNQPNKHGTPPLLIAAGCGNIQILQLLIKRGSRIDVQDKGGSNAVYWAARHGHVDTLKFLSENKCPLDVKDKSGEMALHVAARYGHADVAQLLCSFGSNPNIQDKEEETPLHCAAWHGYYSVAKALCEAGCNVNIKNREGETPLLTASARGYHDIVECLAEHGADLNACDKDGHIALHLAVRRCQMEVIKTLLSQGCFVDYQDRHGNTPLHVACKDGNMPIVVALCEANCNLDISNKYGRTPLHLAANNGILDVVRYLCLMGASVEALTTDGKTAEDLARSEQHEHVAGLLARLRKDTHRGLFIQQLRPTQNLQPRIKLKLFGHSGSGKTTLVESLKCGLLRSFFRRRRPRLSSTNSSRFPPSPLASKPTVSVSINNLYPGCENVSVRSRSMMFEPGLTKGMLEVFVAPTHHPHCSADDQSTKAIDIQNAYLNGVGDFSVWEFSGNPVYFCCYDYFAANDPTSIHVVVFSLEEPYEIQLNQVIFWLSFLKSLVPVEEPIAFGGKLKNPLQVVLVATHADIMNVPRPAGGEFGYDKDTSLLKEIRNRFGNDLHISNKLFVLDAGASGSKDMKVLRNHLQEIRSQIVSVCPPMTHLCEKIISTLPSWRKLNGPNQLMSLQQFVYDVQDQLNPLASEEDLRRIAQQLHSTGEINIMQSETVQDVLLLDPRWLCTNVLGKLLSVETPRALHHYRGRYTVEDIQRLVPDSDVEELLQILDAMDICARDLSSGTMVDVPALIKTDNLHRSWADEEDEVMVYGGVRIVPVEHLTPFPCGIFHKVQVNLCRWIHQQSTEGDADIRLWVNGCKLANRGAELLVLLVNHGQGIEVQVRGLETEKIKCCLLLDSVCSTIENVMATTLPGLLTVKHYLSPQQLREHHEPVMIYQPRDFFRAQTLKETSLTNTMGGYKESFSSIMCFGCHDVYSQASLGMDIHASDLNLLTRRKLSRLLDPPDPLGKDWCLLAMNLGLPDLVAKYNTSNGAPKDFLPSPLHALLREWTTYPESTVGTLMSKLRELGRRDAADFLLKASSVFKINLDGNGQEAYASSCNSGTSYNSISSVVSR

CCN1CCN(Cc2ccc(NC(=O)c3ccc(C)c(CCc4cnc5[nH]ccc5c4OC)c3)cc2C(F)(F)F)CC1 [HYJ-2-002-1]
remaining activity at 1 µM [1, 30]: 100% | remaining activity at 1 µM [2, 30]: 96% | remaining activity at 1 µM [3, 30]: 94% | remaining activity at 1 µM [4, 30]: 88% | remaining activity at 1 µM [5, 30]: 14% | remaining activity at 1 µM [6, 30]: 100% | remaining activity at 1 µM [7, 30]: 100% | remaining activity at 1 µM [8, 30]: 85% | remaining activity at 1 µM [9, 30]: 98% | remaining activity at 1 µM [10, 30]: 92% | remaining activity at 1 µM [11, 30]: 100% | remaining activity at 1 µM [12, 30]: 92% | remaining activity at 1 µM [13, 30]: 100% | remaining activity at 1 µM [14, 30]: 1.2% | remaining activity at 1 µM [15, 30]: 5.7% | remaining activity at 1 µM [16, 30]: 51% | remaining activity at 1 µM [17, 30]: 100% | remaining activity at 1 µM [18, 30]: 26% | remaining activity at 1 µM [19, 30]: 83% | remaining activity at 1 µM [20, 30]: 0.15% | remaining activity at 1 µM [21, 30]: 100% | remaining activity at 1 µM [22, 30]: 100% | remaining activity at 1 µM [23, 30]: 59% | remaining activity at 1 µM [24, 30]: 7% | remaining activity at 1 µM [25, 30]: 0.85% | remaining activity at 1 µM [26, 30]: 49% | remaining activity at 1 µM [27, 30]: 1% | remaining activity at 1 µM [28, 30]: 9% | remaining activity at 1 µM [29, 30]: 2%

CN1CCN(c2ccc(Nc3nc(Oc4ccc(NC(=O)CCl)cc4)c4cc[nH]c4n3)cc2)CC1 [CPT1-70-1]
remaining activity at 1 µM [1, 31]: 100% | remaining activity at 1 µM [2, 31]: 100% | remaining activity at 1 µM [3, 31]: 56% | remaining activity at 1 µM [4, 31]: 100% | remaining activity at 1 µM [5, 31]: 100% | remaining activity at 1 µM [6, 31]: 90% | remaining activity at 1 µM [7, 31]: 92% | remaining activity at 1 µM [8, 31]: 22% | remaining activity at 1 µM [9, 31]: 86% | remaining activity at 1 µM [10, 31]: 88% | remaining activity at 1 µM [11, 31]: 92% | remaining activity at 1 µM [12, 31]: 67% | remaining activity at 1 µM [13, 31]: 69% | remaining activity at 1 µM [14, 31]: 2.2% | remaining activity at 1 µM [15, 31]: 22% | remaining activity at 1 µM [16, 31]: 52% | remaining activity at 1 µM [17, 31]: 33% | remaining activity at 1 µM [18, 31]: 90% | remaining activity at 1 µM [19, 31]: 2.6% | remaining activity at 1 µM [20, 31]: 49% | remaining activity at 1 µM [21, 31]: 51% | remaining activity at 1 µM [22, 31]: 26% | remaining activity at 1 µM [23, 31]: 28% | remaining activity at 1 µM [24, 31]: 100% | remaining activity at 1 µM [25, 31]: 86% | remaining activity at 1 µM [26, 31]: 100% | remaining activity at 1 µM [27, 31]: 100% | remaining activity at 1 µM [28, 31]: 46% | remaining activity at 1 µM [29, 31]: 99%

From paper doi:10.1101/2020.06.11.145995v1 (biorxiv, 2020)
